In patent US11466044B2 (WAYNE STATE UNIVERSITY, priority 2017, dated 2022):
Converted amounts (≈) assume the structure as drawn.

Experiments:
[1] = tested on: E coli wild type; assay: MIC by broth microdilution, wild type E coli; type: cell-based
[2] = tested on: Klebsiella pneumonia AG215; assay: MIC by broth microdilution, Klebsiella pneumonia; type: cell-based; conditions: strain AG215 Klebsiella pneumonia
[3] = tested on: MRSA; assay: MIC by broth microdilution, MRSA isolates; type: cell-based
[4] = tested on: P aeruginosa; assay: MIC by broth microdilution, P aeruginosa isolates; type: cell-based, Pseudomonas aeruginosa; conditions: strain AG220 Pseudomonas aeruginosa ATCC27853
[5] = tested on: Acinetobacter baumannii pittii AG225; assay: MIC by broth microdilution, Acinetobacter baumannii; type: cell-based; conditions: strain AG225 Acinetobacter baumannii pittii
[6] = tested on: cytosolic ribosome (human chimeric); type: biochemical
From the text: (§1) The antiribosomal activity of these compounds was investigated with cell-free translation assays using both wild type bacterial ribosomes and hybrid ribosomes carrying eukaryotic decoding A sites enabling the prediction of selectivity.

[7] = tested on: mitochondrial ribosome (human chimeric); type: biochemical
From the text: as §1

[8] = tested on: A1555G mutant mitochondrial ribosome (human chimeric); assay: in-vitro translation assay, human chimeric ribosomes, A1555G mutant mitochondrial decoding site; type: biochemical
From the text: as §1

[9] = tested on: M. smegmatis SZ380; assay: MIC by broth microdilution, M. smegmatis
[10] = tested on: E coli carrying specific resistance determinants; assay: MIC by broth microdilution, E coli carrying specific resistance determinants; type: cell-based
[11] = tested on: wild type bacterial ribosomes; assay: in-vitro translation assay, bacterial ribosomes; type: biochemical; conditions: Mycobacterium smegmatis ribosomes; read-out: IC50 Bacterial
From the text: as §1

## CC(=O)O.NCC(=O)NC1C(OC2C(N)CC(N)C(O)C2OC2OC(CO)C(OC3OC(CN)C(O)C(O)C3N)C2O)OC(CN)C(O)C1O (stereo not shown) [Compound 175, 2′-N-(2-Aminoacetyl)-neomycin acetate salt]
[1]; AG006 Wild type, Table 2 (Example 3)
  MIC E coli AG006 Wild type: 8 µg/mL
[1]; AG104 Wild type, Table 2 (Example 3)
  MIC E coli AG104 Wild type: 16 µg/mL
[1]; MRSA and E coli, compared with the parent compound
  antibacterial activity, in words: very substantial loss of activity
[1]; WT, Table 5 (Example 3)
  MIC E. coli WT: 8 to 16 µg/mL
[1]; clinical isolate AG001, Table 1 (Example 3)
  MIC E coli AG001: 16 µg/mL
[1]; clinical isolate AG003, Table 1 (Example 3)
  MIC E coli AG003: 32 µg/mL
[1]; clinical isolate AG055, Table 1 (Example 3)
  MIC E coli AG055: 16 µg/mL
[1]; strain AG212 E. coli (ATCC25922)
  MIC AG212 E. coli: 16 µg/mL
[2]
  MIC AG215 K. pneumon: 8 µg/mL
[3]; clinical isolate AG038, Table 1 (Example 3)
  MIC MRSA AG038: 4 µg/mL
[3]; clinical isolate AG039, Table 1 (Example 3)
  MIC MRSA AG039: >32 µg/mL
[3]; clinical isolate AG042, Table 1 (Example 3)
  MIC MRSA AG042: >32 µg/mL
[4]
  MIC AG220 P. aerugin: >32 µg/mL
[5]
  MIC AG225 A. baumannii: 8 to 16 µg/mL
[6]; Table 3 (Example 3)
  Selectivity for Binding to the Bacterial Ribosome over the Cytosolic Ribosome: 155
[7]; Table 3 (Example 3)
  Selectivity for Binding to the Bacterial Ribosome over the Mitochondrial Ribosome: 67
[8]; Table 3 (Example 3)
  Selectivity for Binding to the Bacterial Ribosome over the Mutant Mitochondrial Ribosome: 153
[9]; SZ380 WT, Table 5 (Example 3)
  MIC M. smegmatis SZ380 WT: 0.25 µg/mL
[9]; strain SZ380 Mycobacterium smegmatis
  MIC SZ380 M. smegmatis: 0.25 µg/mL
[10]; AG106 AAC(2′)-Ia, Table 5 (Example 3)
  MIC E. coli AG106 AAC(2′)-Ia: 16 to 32 µg/mL
[10]; AG106 AAC(2′), Table 2 (Example 3)
  MIC E coli AG106 AAC(2′): 16 to 32 µg/mL
[10]; pGB2armA armA, Table 5 (Example 3)
  MIC E. coli pGB2armA armA: 16 μg/ml

## NCC1OC(OC2C(CO)OC(OC3C(O)C(N)CC(N)C3OC3OC4C(O)COC4C(O)C3N)C2O)C(N)C(O)C1O (stereo not shown) [DC204]
[1]; clinical isolate AG001, WT
  MIC AG001 E. coli WT: 16 µg/mL (≈ 25.5 µM)
[11]
  IC50: 0.2 µM
[3]; clinical isolate AG038
  MIC AG038 MRSA: 8 µg/mL (≈ 12.7 µM)
[6]; ribosomes with a human cytosolic decoding site, read-out: IC50 Cytosolic
  IC50: 276 µM
[7]; ribosomes with a human mitochondrial decoding site, read-out: IC50 Mitoch.
  IC50: 131 µM
[8]; human mitochondrial decoding site with A1555G point mutation, read-out: IC50 Mitoch. A1555G
  IC50: 117 µM
